According to patent US20250011288A1 (BRISTOL-MYERS SQUIBB COMPANY, priority 2021, published 2025):
pEC50: −log10 of the molar value.

Biological target: T1, human RXFP1 (Homo sapiens, UniProt Q9HBX9)
T1 construct: expressed in transfected cells
T1 sequence (Q9HBX9 1-757): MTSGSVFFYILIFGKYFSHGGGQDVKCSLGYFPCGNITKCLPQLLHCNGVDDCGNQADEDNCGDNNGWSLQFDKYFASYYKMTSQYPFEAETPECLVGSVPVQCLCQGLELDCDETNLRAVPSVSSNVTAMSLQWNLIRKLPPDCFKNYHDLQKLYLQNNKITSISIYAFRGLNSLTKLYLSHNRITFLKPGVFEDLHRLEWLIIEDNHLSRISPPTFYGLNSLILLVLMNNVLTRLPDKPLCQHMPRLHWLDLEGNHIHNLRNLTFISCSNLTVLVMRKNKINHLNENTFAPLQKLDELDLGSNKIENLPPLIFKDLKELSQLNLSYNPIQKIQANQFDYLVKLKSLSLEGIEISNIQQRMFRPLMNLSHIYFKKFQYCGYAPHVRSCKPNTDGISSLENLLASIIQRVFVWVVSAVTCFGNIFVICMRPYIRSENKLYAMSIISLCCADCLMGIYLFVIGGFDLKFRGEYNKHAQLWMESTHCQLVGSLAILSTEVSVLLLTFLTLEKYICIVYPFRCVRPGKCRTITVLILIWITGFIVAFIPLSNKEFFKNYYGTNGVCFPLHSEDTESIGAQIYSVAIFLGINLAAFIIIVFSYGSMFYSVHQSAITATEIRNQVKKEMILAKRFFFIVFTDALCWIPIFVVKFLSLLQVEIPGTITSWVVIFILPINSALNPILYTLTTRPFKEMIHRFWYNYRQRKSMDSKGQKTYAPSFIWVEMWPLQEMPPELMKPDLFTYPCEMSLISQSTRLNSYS
Assay: human RXFP1 (hRXFP1) HEK293 cAMP assay (HTRF)
Type: cell-based
Conditions: HEK293 cells stably expressing human RXFP1, 30 min at room temperature
In short: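 HEK293 cells stably expressing human RXFP1 (1500 cells/well) in HBSS/20 mM HEPES/0.05% BSA/0.5 mM IBMX, treated with compound (0.010 nM–50 µM final, 2% DMSO) for 30 min at room temperature. Intracellular cAMP read by HTRF; potency from 4-parameter logistic fit of cAMP versus concentration.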

pEC50	Structure (SMILES)
8.39	CC1Cc2cc(C3=NOC4CC(O)CC34)cc(C(=O)N[C@H]3[C@@H](C(=O)Nc4ccc(F)c(C(F)(F)F)c4)[C@H]4CC[C@@H]3/C4=C\C3CC3)c2O1 (stereo partly drawn) [Example 154, N-[(1R,2R,3S,4R, 7Z)-7-(cyclopropyl-methylidene)-3-{[4-fluoro-3-(trifluoromethyl)phenyl]carbamoyl}bicyclo[2.2.1]heptan-2-yl]-5-{5-hydroxy-3aH,4H,5H,6H, 6aH-cyclopenta[d][1, 2]oxazol-3-yl}-2-methyl-2,3-dihydro-1-benzofuran-7-carboxamide]
8.17	CC1Cc2cc(C3=NOC4CC(O)CC34)cc(C(=O)N[C@@H]3C4CCC(/C4=C/C4CC4)[C@@H]3C(=O)Nc3ccc(F)c(C(F)(F)F)c3)c2O1 (stereo partly drawn) [Example 155, N-[(1R,2R,3S,4R, 7Z)-7-(cyclopropyl-methylidene)-3-{[4-fluoro-3-(trifluoromethyl)phenyl]carbamoyl}bicyclo[2.2.1]heptan-2-yl]-5-{5-hydroxy-3aH,4H,5H,6H, 6H-cyclopenta[d][1,2]oxazol-3-yl}-2-methyl-2,3-dihydro-1-benzofuran-7-carboxamide]
8.89	CC1Cc2cc(C3=NOC4CC(O)(C(F)(F)F)CC34)cc(C(=O)N[C@H]3[C@@H](C(=O)Nc4ccc(F)c(C(F)(F)F)c4)[C@H]4CC[C@@H]3/C4=C\C3CCCC3)c2O1 (stereo partly drawn) [Example 156, N-[(1R,2R,3S,4R, 7Z)-7-(cyclopentyl-methylidene)-3-{[4-fluoro-3-(trifluoromethyl)phenyl]carbamoyl}bicyclo[2.2.1]heptan-2-yl]-5-[5-hydroxy-5-(trifluoromethyl) 3aH,4H,5H,6H, 6aH-cyclopenta[d][1,2]oxazol-3-yl]-2-methyl-2,3-dihydro-1-benzofuran-7-carboxamide]
8.25	COc1ncc(C2=NOC(C)(CO)C2)cc1C(=O)N[C@H]1[C@@H](C(=O)Nc2ccc(F)c(C(F)(F)F)c2)[C@H]2CC[C@@H]1/C2=C\C1CC1 (stereo partly drawn) [Example 157, N-[(1R,2R,3S,4R, 7Z)-7-(cyclopropyl-methylidene)-3-{[4-fluoro-3-(trifluoromethyl)phenyl]carbamoyl}bicyclo[2.2.1]heptan-2-yl]-5-[5-(hydroxymethyl)-5-methyl-4,5-dihydro-1,2-oxazol-3-yl]-2-methoxypyridine-3-carboxamide]
8.11	COc1cc(C2=NOC3CC(COC(=O)Nc4ccccc4)CC23)cc(C(=O)N[C@@H]2C3CCC(/C3=C/C3CC3)[C@@H]2C(=O)Nc2ccc(F)c(C(F)(F)F)c2)n1 (stereo partly drawn) [Example 158, [3-(2-{[(2R,3S,7Z)-7-(cyclopropyl-methylidene)-3-{[4-fluoro-3-(trifluoromethyl)phenyl]carbamoyl}bicyclo[2.2.1]heptan-2-yl]carbamoyl}-6-methoxypyridin-4-yl)-3aH,4H,5H,6H, 6aH-cyclopenta[d][1,2]oxazol-5-yl]methyl N-phenylcarbamate]
8.21	COc1ncc(C2=NOC3CC(C(C)O)CC23)cc1C(=O)N[C@H]1[C@@H](C(=O)N[C@H](C)C2(C)CC2)[C@H]2CC[C@@H]1/C2=C\C1CC1 (stereo partly drawn) [Example 159, N-[(1R,2R,3S,4R, 7Z)-7-(cyclopropyl-methylidene)-3-{[(1R)-1-(1-methylcyclopropyl)ethyl]carbamoyl}bicyclo[2.2.1]heptan-2-yl]-5-[5-(1-hydroxyethyl)-3aH,4H,5H,6H, 6aH-cyclopenta[d][1,2]oxazol-3-yl]-2-methoxypyridine-3-carboxamide]

The remaining lines, values behind:

Structure (SMILES)	pEC50
COc1ncc(C2=NOC3CC(CO)CC23)cc1C(=O)N[C@H]1[C@@H](C(=O)N[C@H](C)C2(C)CC(F)(F)C2)[C@H]2CC[C@@H]1/C2=C\C1CC1 (stereo partly drawn) [Example 140, N-((1R,2R,3S,4R,Z)-7-(cyclopropyl-methylene)-3-(((R)-1-(3,3-difluoro-1-methylcyclobutyl)ethyl)carbamoyl)bicyclo[2.2.1]heptan-2-yl)-5-(5-(hydroxymethyl)-3a,5,6,6a-tetrahydro-4H-cyclopenta[d]isoxazol-3-yl)-2-methoxynicotinamide]	8.49
COc1ncc(C2=NOC3CC(CO)CC23)cc1C(=O)N[C@@H]1C2CCC(/C2=C/C2CC2)[C@@H]1C(=O)N[C@H](C)C1(C(F)(F)F)CC1 (stereo partly drawn) [Example 141]	8.47
CC1(C)Cc2cc(C3=NOC4CC(CO)CC34)cc(C(=O)N[C@@H]3C4CCC(/C4=C/C4CC4)[C@@H]3C(=O)Nc3ccc(F)c(C(F)(F)F)c3)c2O1 (stereo partly drawn) [Example 144]	8.70
CC1(C)Cc2cc(C3=NOC4COCC34)cc(C(=O)N[C@@H]3C4CCC(/C4=C/C4CC4)[C@@H]3C(=O)Nc3ccc(F)c(C(F)(F)F)c3)c2O1 (stereo partly drawn) [Example 145, 5-{3aH,4H,6H,6aH-furo[3,4-d][1,2]oxazol-3-yl}-N-[(1R,2R,3S, 4R,7Z,)-7-(cyclopropyl-methylidene)-3-{[4-fluoro-3-(trifluoromethyl)phenyl]carbamoyl}bicyclo[2.2.1]heptan-2-yl]-2,2-dimethyl-2,3-dihydro-1-benzofuran-7-carboxamide]	8.52
CC(C)(C)CNC(=O)[C@@H]1[C@H](NC(=O)c2cc(C3=NOC4CC(CO)CC34)cc3c2OC(C)(C)C3)[C@@H]2CC[C@H]1/C2=C/C1CC1 (stereo partly drawn) [Example 146, N-[(1R,2R,3S, 4R,7Z)-7-(cyclopropyl-methylidene)-3-[(2,2-dimethylpropyl)carbamoyl]bicyclo [2.2.1]heptan-2-yl]-5-[5-(hydroxymethyl)-3aH,4H,5H,6H,6aH-cyclopenta[d][1,2]oxazol-3-yl]-2,2-dimethyl-2,3-dihydro-1-benzofuran-7-carboxamide]	8.46
CC1(C)Cc2cc(C3=NOC4CCOCC34)cc(C(=O)N[C@H]3[C@@H](C(=O)Nc4ccc(F)c(C(F)(F)F)c4)[C@H]4CC[C@@H]3/C4=C\C3CC3)c2O1 (stereo partly drawn) [Example 147, 5-{3aH,4H,6H, 7H,7aH-pyrano[3,4-d][1,2]oxazol-3-yl}-N-[(1R,2R,3S,4R,7Z)-7-(cyclopropyl-methylidene)-3-{[4-fluoro-3-(trifluoromethyl)phenyl]carbamoyl}bicyclo[2.2.1]heptan-2-yl]-2,2-dimethyl-2,3-dihydro-1-benzofuran-7-carboxamide]	8.42
COc1ncc(-c2cc([C@H](OC(=O)NC3CCC3)C(F)(F)F)ccc2F)cc1C(=O)N[C@H]1[C@@H](C(=O)NC(C)C2(C)CC2)[C@H]2CC[C@@H]1/C2=C\C1CC(F)(F)C1 (stereo partly drawn) [Example 148, (S)-1-(3-(5-(((1R,2R,3S,4R, Z)-7-((3,3-difluorocyclobutyl)methylene)-3-(((R)-1-(1-methylcyclopropyl)ethyl)carbamoyl)bicyclo[2.2.1]heptan-2-yl)carbamoyl)-6-methoxypyridin-3-yl)-4-fluorophenyl)-2,2,2-trifluoroethyl cyclobutylcar-bamate]	9.30
COc1ncc(C(=O)NCC2(S(C)(=O)=O)CC2)cc1C(=O)N[C@H]1[C@@H](C(=O)N[C@H](C)C2(C)CC2)[C@H]2CC[C@@H]1/C2=C\C1CC1 [Example 149, N3-[(1R,2R,3S,4R, 7Z)-7-(cyclopropyl-methylidene)-3-{[(1R)-1-(1-methylcyclopropyl)ethyl]carbamoyl}bicyclo[2.2.1]heptan-2-yl]-N5-[(1-methanesulfonylcyclopropyl)methyl]-2-methoxypyridine-3,5-dicarboxamide]	8.57
COc1ncc(-c2c(C)nn3c2COCC3)cc1C(=O)N[C@H]1[C@@H](C(=O)Nc2ccc(F)c(C(F)(F)F)c2)[C@H]2CC[C@@H]1/C2=C\C1CCCC1 [Example 150, N-[(1R,2R,3S,4R, 7Z)-7-(cyclopentyl-methylidene)-3-{[4-fluoro-3-(trifluoromethyl)phenyl]carbamoyl}bicyclo[2.2.1]heptan-2-yl]-2-methoxy-5-{2-methyl-4H,6H,7H-pyrazolo[3,2-c][1,4]oxazin-3-yl}pyridine-3-carboxamide]	8.28
COc1ncc(C(=O)N2CC(S(C)(=O)=O)C2)cc1C(=O)N[C@H]1[C@@H](C(=O)N[C@H](C)C2(C)CC2)[C@H]2CC[C@@H]1/C2=C\C1CC1 [Example 151, N-[(1R,2R,4R,7Z)-7-(cyclopropyl-methylidene)-3-{[(1R)-1-(1-methylcyclopropyl)ethyl]carbamoyl}bicyclo[2.2.1]heptan-2-yl]-5-(3-methanesulfonylazetidine-1-carbonyl)-2-methoxypyridine-3-carboxamide]	8.46
CC1Cc2cc(C3=NOC4CC(CO)CC34)cc(C(=O)N[C@@H]3C4CCC(/C4=C/C4CC4)[C@@H]3C(=O)N[C@H](C)C3(C)CC3)c2O1 (stereo partly drawn) [Example 152]	8.05
CC1Cc2cc(C3=NOC4CC(CO)CC34)cc(C(=O)N[C@H]3[C@@H](C(=O)N[C@H](C)C4(C)CC4)[C@H]4CC[C@@H]3/C4=C\C3CC3)c2O1 (stereo partly drawn) [Example 153, N-[(1R,2R,3S,4R, 7Z)-7-(cyclopropyl-methylidene)-3-{[(1R)-1-(1-methylcyclopropyl)ethyl]carbamoyl}bicyclo[2.2.1]heptan-2-yl]-5-[5-(hydroxymethyl) 3aH,4H,5H,6H, 6aH-cyclopenta[d][1,2]oxazol-3-yl]-2-methyl-2,3-dihydro-1-benzofuran-7-carboxamide]	8.34
